Measurements from patent publication US12540141B2, “Spiropyrrolidine derived antiviral agents” (priority 2020, dated 2026).

Target: SARS-CoV-2 3CL-protease (Severe acute respiratory syndrome coronavirus 2, UniProt P0DTD1)
Test: SARS-CoV-2 3C-Like (3CL) Protease Fluorescence Assay (FRET)
Format: biochemical
Conditions: SARS-CoV-2 3CL-protease 10 nM, 30 min preincubation at RT, substrate 40 μM

Row | SMILES | IC50 [nM]
1 | CC(C)C[C@@H](C(=O)N1C[C@]2(C[C@H]1C#N)C(=O)Nc1ccccc12)N(C)C(=O)c1ccncc1 [Example 194] | 100 to 1000
2 | CC(C)C[C@@H](C(=O)N1C[C@]2(C[C@H]1C#N)C(=O)Nc1ccccc12)N(C)C(=O)c1cncc(C(F)(F)F)c1 [Example 195] | < 100
3 | CC(C)C[C@@H](C(=O)N1C[C@]2(C[C@H]1C#N)C(=O)Nc1ccccc12)N(C)C(=O)c1cncc(F)c1 [Example 196] | < 100
4 | CC(C)C[C@@H](C(=O)N1C[C@]2(C[C@H]1C#N)C(=O)Nc1ccccc12)N(C)C(=O)c1cc(F)ccn1 [Example 197] | 100 to 1000
5 | CC(C)C[C@@H](C(=O)N1C[C@]2(C[C@H]1C#N)C(=O)Nc1ccccc12)N(C)C(=O)c1ccc(F)cn1 [Example 198] | 100 to 1000
6 | CC(C)C[C@@H](C(=O)N1C[C@]2(C[C@H]1C#N)C(=O)Nc1ccccc12)N(C)C(=O)c1cccc(N)n1 [Example 199] | 100 to 1000
7 | CC(C)C[C@@H](C(=O)N1C[C@]2(C[C@H]1C#N)C(=O)Nc1ccccc12)N(C)C(=O)c1cnccn1 [Example 200] | < 100
8 | CC(C)C[C@@H](C(=O)N1C[C@]2(C[C@H]1C#N)C(=O)Nc1ccccc12)N(C)C(=O)c1cn(C)cn1 [Example 201] | 100 to 1000
9 | CC(C)C[C@@H](C(=O)N1C[C@]2(C[C@H]1C#N)C(=O)Nc1ccccc12)N(C)C(=O)c1ccn[nH]1 [Example 202] | 100 to 1000
10 | CC(C)C[C@@H](C(=O)N1C[C@]2(C[C@H]1C#N)C(=O)Nc1ccccc12)N(C)C(=O)c1ccnn1C [Example 203] | < 100
11 | CC(C)C[C@@H](C(=O)N1C[C@]2(C[C@H]1C#N)C(=O)Nc1ccccc12)N(C)C(=O)c1ccn(C)n1 [Example 204] | 100 to 1000
12 | CC(C)C[C@@H](C(=O)N1C[C@]2(C[C@H]1C#N)C(=O)Nc1ccccc12)N(C)C(=O)c1nc2ccccc2[nH]1 [Example 205] | < 100
13 | CC(C)C[C@@H](C(=O)N1C[C@]2(C[C@H]1C#N)C(=O)Nc1ccccc12)N(C)C(=O)c1nc2ccccc2s1 [Example 206] | 100 to 1000
14 | CC(C)C[C@@H](C(=O)N1C[C@]2(C[C@H]1C#N)C(=O)Nc1ccccc12)N(C)C(=O)c1cc2ccccc2s1 [Example 207] | < 100
15 | CC(C)C[C@@H](C(=O)N1C[C@]2(C[C@H]1C#N)C(=O)Nc1ccccc12)N(C)C(=O)c1cc2ccccc2o1 [Example 208] | < 100
16 | CC(C)C[C@@H](C(=O)N1C[C@]2(C[C@H]1C#N)C(=O)Nc1ccccc12)N(C)C(=O)c1cc2sccc2[nH]1 [Example 209] | < 100
17 | CC(C)C[C@@H](C(=O)N1C[C@]2(C[C@H]1C#N)C(=O)Nc1ccccc12)N(C)C(=O)c1ccc2ncccc2c1 [Example 210] | < 100
18 | CC(C)C[C@@H](C(=O)N1C[C@]2(C[C@H]1C#N)C(=O)Nc1ccccc12)N(C)C(=O)c1ccc2ccccc2n1 [Example 211] | 100 to 1000
19 | CC(C)C[C@@H](C(=O)N1C[C@]2(C[C@H]1C#N)C(=O)Nc1ccccc12)N(C)C(=O)c1cc2ccccc2cn1 [Example 212] | < 100
20 | CC(C)C[C@@H](C(=O)N1C[C@]2(C[C@H]1C#N)C(=O)Nc1ccccc12)N(C)C(=O)c1cnc2ccccc2c1 [Example 213] | < 100
21 | CC(C)C[C@@H](C(=O)N1C[C@]2(C[C@H]1C#N)C(=O)Nc1ccccc12)N(C)C(=O)c1cccc2ncccc12 [Example 214] | < 100

Row | SMILES | IC50 [nM]
22 | CC(C)C[C@@H](C(=O)N1C[C@]2(C[C@H]1C#N)C(=O)Nc1ccccc12)N(C)C(=O)c1cccc2cnccc12 [Example 215] | < 100
23 | CC(C)C[C@@H](C(=O)N1C[C@]2(C[C@H]1C#N)C(=O)Nc1ccccc12)N(C)C(=O)c1ccc2cnccc2c1 [Example 216] | < 100
24 | CC(C)C[C@@H](C(=O)N1C[C@]2(C[C@H]1C#N)C(=O)Nc1ccccc12)N(C)C(=O)c1ccc2ccncc2c1 [Example 217] | 100 to 1000
25 | CC(C)C[C@@H](C(=O)N1C[C@]2(C[C@H]1C#N)C(=O)Nc1ccccc12)N(C)C(=O)c1ccc2cccnc2c1 [Example 218] | 100 to 1000
26 | CC(C)C[C@@H](C(=O)N1C[C@]2(C[C@H]1C#N)C(=O)Nc1ccccc12)N(C)C(=O)c1ccc2ccccc2c1 [Example 219] | 100 to 1000
27 | CC(C)C[C@@H](C(=O)N1C[C@]2(C[C@H]1C#N)C(=O)Nc1ccccc12)N(C)C(=O)c1ccc(F)c2ccccc12 [Example 221] | < 100
28 | CC(C)C[C@@H](C(=O)N1C[C@]2(C[C@H]1C#N)C(=O)Nc1ccccc12)N(C)C(=O)c1ccc2cc(F)ccc2c1 [Example 222] | 100 to 1000
29 | CC(C)C[C@@H](C(=O)N1C[C@]2(C[C@H]1C#N)C(=O)Nc1ccccc12)N(C)C(=O)c1ccc2cn[nH]c2c1 [Example 223] | 100 to 1000
30 | CC(C)C[C@@H](C(=O)N1C[C@]2(C[C@H]1C#N)C(=O)Nc1ccccc12)N(C)C(=O)c1ccc2cnn(C)c2c1 [Example 224] | < 100
31 | CC(C)C[C@@H](C(=O)N1C[C@]2(C[C@H]1C#N)C(=O)Nc1ccccc12)N(C)C(=O)c1ccc2nc(N)sc2c1 [Example 225] | > 1000
32 | CC(C)C[C@@H](C(=O)N1C[C@]2(C[C@H]1C#N)C(=O)Nc1ccccc12)N(C)C(=O)Cc1ccccc1 [Example 226] | < 100
33 | CC(C)C[C@@H](C(=O)N1C[C@]2(C[C@H]1C#N)C(=O)Nc1ccccc12)N(C)C(=O)CCc1ccccc1 [Example 227] | < 100
34 | CC(C)C[C@@H](C(=O)N1C[C@]2(C[C@H]1C#N)C(=O)Nc1ccccc12)N(C)C(=O)/C=C/c1ccccc1 [Example 228] | < 100
35 | CC(C)C[C@@H](C(=O)N1C[C@]2(C[C@H]1C#N)C(=O)Nc1ccccc12)N(C)C(=O)COc1ccccc1 [Example 229] | < 100
36 | CC(C)C[C@@H](C(=O)N1C[C@]2(C[C@H]1C#N)C(=O)Nc1ccccc12)N(C)C(=O)c1ccc2c(Br)cccc2n1 [Example 231] | 100 to 1000
37 | Cc1ccc2cc(C(=O)N(C)[C@@H](CC(C)C)C(=O)N3C[C@]4(C[C@H]3C#N)C(=O)Nc3ccccc34)ccc2n1 [Example 234] | < 100
38 | CC(C)C[C@@H](C(=O)N1C[C@]2(C[C@H]1C#N)C(=O)Nc1ccccc12)N(C)C(=O)c1ccc2ncc(F)cc2c1 [Example 235] | < 100
39 | CC(C)C[C@@H](C(=O)N1C[C@]2(C[C@H]1C#N)C(=O)Nc1ccccc12)N(C)C(=O)c1cc2ccc(Br)cc2cn1 [Example 236] | 100 to 1000
40 | CC(C)C[C@@H](C(=O)N1C[C@]2(C[C@H]1C#N)C(=O)Nc1ccccc12)N(C)C(=O)c1ccc2ncc(C(F)(F)F)cc2c1 [Example 237] | < 100
41 | Cc1cc2cc(C(=O)N(C)[C@@H](CC(C)C)C(=O)N3C[C@]4(C[C@H]3C#N)C(=O)Nc3ccccc34)cc(OC(F)(F)F)c2nc1C [Example 238] | < 100
42 | CC(C)C[C@@H](C(=O)N1C[C@]2(C[C@H]1C#N)C(=O)Nc1ccccc12)N(C)C(=O)c1cc(Cl)c2ncc(C3CC3)cc2c1 [Example 239] | 100 to 1000

Row | SMILES | IC50 [nM]
43 | CC(C)C[C@@H](C(=O)N1C[C@]2(C[C@H]1C#N)C(=O)Nc1ccccc12)N(C)C(=O)c1cc(Cl)c2ncc(C(F)(F)F)cc2c1 [Example 240] | < 100
44 | CC(C)C[C@@H](C(=O)N1C[C@]2(C[C@H]1C#N)C(=O)Nc1ccccc12)N(C)C(=O)c1cccc2ccccc12 [Example 241] | < 100
45 | CC(C)C[C@@H](C(=O)N1C[C@]2(C[C@H]1C#N)C(=O)Nc1ccccc12)N(C)C(=O)c1ccc2ccsc2c1 [Example 246] | 100 to 1000
46 | CC(C)C[C@@H](C(=O)N1C[C@]2(C[C@H]1C#N)C(=O)Nc1ccccc12)N(C)C(=O)c1cc2ccccn2n1 [Example 247] | 100 to 1000
47 | CC(C)C[C@@H](C(=O)N1C[C@]2(C[C@H]1C#N)C(=O)Nc1ccccc12)N(C)C(=O)C#Cc1ccccc1 [Example 248] | 100 to 1000
48 | COc1ccc2[nH]c(C(=O)N(C)[C@@H](CC(C)C)C(=O)N3C[C@]4(C[C@H]3C#N)C(=O)Nc3ccccc34)nc2c1 [Example 249] | < 100
49 | CC(C)C[C@@H](C(=O)N1C[C@]2(C[C@H]1C#N)C(=O)Nc1ccccc12)N(C)C(=O)c1nc2cc(F)ccc2[nH]1 [Example 250] | < 100
50 | CC(C)C[C@@H](C(=O)N1C[C@]2(C[C@H]1C#N)C(=O)Nc1ccccc12)N(C)C(=O)c1nc2cc(Cl)c(Cl)cc2[nH]1 [Example 251] | 100 to 1000
51 | Cc1cccc2[nH]c(C(=O)N(C)[C@@H](CC(C)C)C(=O)N3C[C@]4(C[C@H]3C#N)C(=O)Nc3ccccc34)nc12 [Example 252] | < 100
52 | CC(C)C[C@@H](C(=O)N1C[C@]2(C[C@H]1C#N)C(=O)Nc1ccccc12)N(C)C(=O)c1cc2cccnc2cc1OC(F)F [Example 253] | < 100
53 | CC(C)C[C@@H](C(=O)N1C[C@]2(C[C@H]1C#N)C(=O)Nc1ccccc12)N(C)C(=O)c1cc2ccc(=O)[nH]c2cc1OC1CC1 [Example 254] | < 100
54 | CC(C)C[C@@H](C(=O)N1C[C@]2(C[C@H]1C#N)C(=O)Nc1ccccc12)N(C)C(=O)c1cc(Cl)c2[nH]c(C3CC3)nc2c1 [Example 256] | < 100
55 | CC(C)C[C@@H](C(=O)N1C[C@]2(C[C@H]1C#N)C(=O)Nc1ccccc12)N(C)C(=O)c1ccc2nc(-c3ccccc3)ccc2c1 [Example 257] | 100 to 1000
56 | COc1cc(C(=O)N(C)[C@@H](CC(C)C)C(=O)N2C[C@]3(C[C@H]2C#N)C(=O)Nc2ccccc23)nc2ccccc12 [Example 258] | 100 to 1000
57 | Cc1cc(C)c2ccc(C(=O)N(C)[C@@H](CC(C)C)C(=O)N3C[C@]4(C[C@H]3C#N)C(=O)Nc3ccccc34)nc2c1O [Example 259] | 100 to 1000
58 | CC(C)C[C@@H](C(=O)N1C[C@]2(C[C@H]1C#N)C(=O)Nc1ccccc12)N(C)C(=O)c1cnc2ccccc2c1O [Example 260] | 100 to 1000
59 | CC(C)C[C@@H](C(=O)N1C[C@]2(C[C@H]1C#N)C(=O)Nc1ccccc12)N(C)C(=O)c1ccccc1-c1ccccc1 [Example 261] | 100 to 1000
60 | CC(C)C[C@@H](C(=O)N1C[C@]2(C[C@H]1C#N)C(=O)Nc1ccccc12)N(C)C(=O)c1cc(-c2ccccc2)ccc1Cl [Example 262] | 100 to 1000
61 | CC(C)C[C@@H](C(=O)N1C[C@]2(C[C@H]1C#N)C(=O)Nc1ccccc12)N(C)C(=O)c1cccc(-c2ccc(C(F)(F)F)cc2)c1 [Example 263] | 100 to 1000
62 | CC(C)C[C@@H](C(=O)N1C[C@]2(C[C@H]1C#N)C(=O)Nc1ccccc12)N(C)C(=O)c1cccc(-c2ccccc2F)c1 [Example 264] | 100 to 1000
